Columns and labels:
Assay type in all cases: cell-based
[1] = test system: Human Rhinovirus 1B (HRV1B) in H1-HeLa cells; test: H1-HeLa HRV-CTG EC50, HRV1B (Example Z); details: Rhinovirus A, 96 h, MOI 0.5, 4 days, Celltiter-Glo, read-out: HRV 1B HELA EC50 (nM) (per Ex. Z)
Outline: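 H1-HeLa cells (5,000/well) in DMEM with 2% FBS were infected with HRV1B, HRV14 or HRV16 at MOI 0.5, 1.0 and 0.25, respectively, with 10-point 1:3 compound dilutions. After 4 days at 37 °C, viability was read by CellTiter-Glo luminescence. EC50 was the concentration reducing viral replication by 50%, normalized to rupintrivir and DMSO controls.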

[2] = RSV NHBE CC50 384 V2 (per Ex. U); details: human
[3] = RSV HEP2-CC50-384-V2 (per Ex. V); details: human
[4] = test system: Respiratory syncytial virus recombinant with luciferase (RSV-Luc5) in HEp-2 cells; test: HEp-2 RSV-Luc5 384-well assay (EC50 RSVFLUC Hep2-384 v2, Example V); details: human respiratory syncytial virus, HEp-2, 72 h, read-out: RSV Hep-2 FLuc EC50 (v2) (nM) (per Ex. V)
Outline: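 HEp-2 cells (4,000/well) infected with RSV-Luc5 at MOI 0.5 in DMEM/10% FBS with compound, 10-point 1:3 dilutions, 3 days at 37 °C. Replication read by One-Glo luminescence, normalized to remdesivir (0%) and DMSO (100%). EC50 from non-linear regression as concentration giving 50% reduction.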

Row | Compound | EC50 [1] | CC50 at 3 days [2] | CC50 at 3 days [3] | EC50 [4]
1 | CCCCCCCCCCCCCCCCCCC[C@H](COP(=O)(O)OC[C@@]1(C#N)O[C@@H](c2ccc3c(N)ncnn23)[C@H](O)[C@@H]1O)OCc1cc(F)cc(C#N)c1 [Compound 25, ((2R,3S,4R,5S)-5-(4-aminopyrrolo[2,1-f][1,2,4]triazin-7-yl)-2-cyano-3,4-dihydroxytetrahydrofuran-2-yl)methyl ((R)-2-((3-cyano-5-fluorobenzyl)oxy)henicosyl) hydrogen phosphate] | 45 nM | 31000 nM | > 50000 nM | 2920 nM
2 | CCCCCCCCCCCCCCOC[C@H](COP(=O)(O)OC[C@@]1(C#N)O[C@@H](c2ccc3c(N)ncnn23)[C@H](O)[C@@H]1O)OCc1ccc(C#N)cc1F [Compound 75, ((2R,3S,4R,5S)-5-(4-aminopyrrolo[2,1-f][1,2,4]triazin-7-yl)-2-cyano-3,4-dihydroxytetrahydrofuran-2-yl)methyl ((R)-2-((4-cyano-2-fluorobenzyl)oxy)-3-(tetradecyloxy)propyl) hydrogen phosphate] | 23 nM | 4620 nM | > 48500 nM | 446 nM
3 | CCCCCCCCCCCCCCCCCCOCC(COc1cc(F)cc(C#N)c1)COP(=O)(O)OC[C@@]1(C#N)O[C@@H](c2ccc3c(N)ncnn23)[C@H](O)[C@@H]1O (stereo partly drawn) [Compound 43, ((2R,3S,4R,5S)-5-(4-aminopyrrolo[2,1-f][1,2,4]triazin-7-yl)-2-cyano-3,4-dihydroxytetrahydrofuran-2-yl)methyl (3-(3-cyano-5-fluorophenoxy)-2-((octadecyloxy)methyl)propyl) hydrogen phosphate] | 36 nM | 11900 nM | > 30300 nM | 707 nM
4 | CCCCCCCCCCCCCCCCCCOC[C@H](COP(=O)(O)OC[C@@]1(C#N)O[C@@H](c2ccc3c(N)ncnn23)[C@H](O)[C@@H]1O)Oc1ccc(C#N)c(OC(C)C)c1 [Compound 23, ((2R,3S,4R,5S)-5-(4-aminopyrrolo[2,1-f][1,2,4]triazin-7-yl)-2-cyano-3,4-dihydroxytetrahydrofuran-2-yl)methyl ((R)-2-(4-cyano-3-isopropoxyphenoxy)-3-(octadecyloxy)propyl) hydrogen phosphate] | 4 nM | 5400 nM | > 42000 nM | 71 nM
5 | CCCCCCCCCCCCCCCCCOC[C@H](COP(=O)(O)OC[C@@]1(C#N)O[C@@H](c2ccc3c(N)ncnn23)[C@H](O)[C@@H]1O)OCc1cc(F)cc(C#N)c1 [Compound 53, ((2R,3S,4R,5S)-5-(4-aminopyrrolo[2,1-f][1,2,4]triazin-7-yl)-2-cyano-3,4-dihydroxytetrahydrofuran-2-yl)methyl ((R)-2-((3-cyano-5-fluorobenzyl)oxy)-3-(heptadecyloxy)propyl) hydrogen phosphate] | 34 nM | 2820 nM | 32100 nM | 200 nM

— patent US20250034182A1, “PHOSPHOLIPID COMPOUNDS AND METHODS OF MAKING AND USING THE SAME” (priority 2021, published 2025)
